# Laboratory results taken from ChEMBL document CHEMBL5260845, “Flavone-based arylamides as potential anticancers: Design, synthesis and in vitro cell-based/cell-free evaluations” (2020).
# Activity calls are given as the source filed them. The rule behind the calls is not given here.
# How the values were obtained:
# SF-295 [1] = test: Antiproliferative activity against human SF-295 cells assessed as cell growth inhibition at 10 uM by SRB assay relative to control; type: functional
# SNB-75 [2] = test: Antiproliferative activity against human SNB-75 cells assessed as cell growth inhibition at 10 uM by SRB assay relative to control; type: functional
# SNB-19 = test: Antiproliferative activity against human SNB-19 cells assessed as cell growth inhibition at 10 uM by SRB assay; type: functional, cell-based
# RPMI-8226 [3] = test: Antiproliferative activity against human RPMI-8226 cells assessed as cell growth inhibition at 10 uM by SRB assay relative to control; type: functional
# SF-295 [4] = test: Antiproliferative activity against human SF-295 cells assessed as cell growth inhibition at 10 uM by SRB assay; type: functional, cell-based
# SF-539 = test: Antiproliferative activity against human SF-539 cells assessed as cell growth inhibition at 10 uM by SRB assay; type: functional, cell-based
# U-251 = test: Antiproliferative activity against human U-251 cells assessed as cell growth inhibition at 10 uM by SRB assay; type: functional, cell-based
# SF-268 = test: Antiproliferative activity against human SF-268 cells assessed as cell growth inhibition at 10 uM by SRB assay; type: functional, cell-based
# SNB-75 [5] = test: Antiproliferative activity against human SNB-75 cells assessed as cell growth inhibition at 10 uM by SRB assay; type: functional, cell-based
# CCRF-CEM [6] = test: Antiproliferative activity against human CCRF-CEM cells assessed as cell growth inhibition at 10 uM by SRB assay relative to control; type: functional
# HL-60 [7] = test: Antiproliferative activity against human HL-60 cells assessed as cell growth inhibition at 10 uM by SRB assay relative to control; type: functional
# K562 [8] = test: Antiproliferative activity against human K562 cells assessed as cell growth inhibition at 10 uM by SRB assay relative to control; type: functional
# MOLT-4 [9] = test: Antiproliferative activity against human MOLT-4 cells assessed as cell growth inhibition at 10 uM by SRB assay relative to control; type: functional
# SR [10] = test: Antiproliferative activity against human SR cells assessed as cell growth inhibition at 10 uM by SRB assay relative to control; type: functional
# EKVX = test: Antiproliferative activity against human EKVX cells assessed as cell growth inhibition at 10 uM by SRB assay; type: functional
# HOP-92 = test: Antiproliferative activity against human HOP-92 cells assessed as cell growth inhibition at 10 uM by SRB assay; type: functional, cell-based
# NCI-H226 = test: Antiproliferative activity against human NCI-H226 cells assessed as cell growth inhibition at 10 uM by SRB assay; type: functional
# NCI-H23 = test: Antiproliferative activity against human NCI-H23 cells assessed as cell growth inhibition at 10 uM by SRB assay; type: functional
# NCI-H522 = test: Antiproliferative activity against human NCI-H522 cells assessed as cell growth inhibition at 10 uM by SRB assay; type: functional, cell-based
# SK-MEL-2 = test: Antiproliferative activity against human SK-MEL-2 cells assessed as cell growth inhibition at 10 uM by SRB assay relative to control; type: functional; conditions: Homo sapiens, SK-MEL-2, dose 10 µM
# UO-31 = test: Antiproliferative activity against human UO-31 cells assessed as inhibition of cell growth at 10 uM by SRB assay relative to control; type: functional
# Hs-578T = test: Antiproliferative activity against human Hs-578T cells assessed as inhibition of cell growth at 10 uM by SRB assay; type: functional, cell-based
# CCRF-CEM [11] = test: Antiproliferative activity against human CCRF-CEM cells assessed as cell growth inhibition at 10 uM by SRB assay; type: functional, cell-based
# HL-60 [12] = test: Antiproliferative activity against human HL-60 cells assessed as cell growth inhibition at 10 uM by SRB assay; type: functional, cell-based
# K562 [13] = test: Antiproliferative activity against human K562 cells assessed as cell growth inhibition at 10 uM by SRB assay; type: functional, cell-based
# MOLT-4 [14] = test: Antiproliferative activity against human MOLT-4 cells assessed as cell growth inhibition at 10 uM by SRB assay; type: functional, cell-based
# RPMI-8226 [15] = test: Antiproliferative activity against human RPMI-8226 cells assessed as cell growth inhibition at 10 uM by SRB assay; type: functional, cell-based
# SR [16] = test: Antiproliferative activity against human SR cells assessed as cell growth inhibition at 10 uM by SRB assay; type: functional, cell-based
# T47D = test: Antiproliferative activity against estrogen receptor positive human T47D cells assessed as inhibition of cell growth at 10 uM by SRB assay relative to control; type: functional
# [17] = Antiproliferative activity against human hematologic cancer cells assessed as cell growth inhibition at 10 uM by SRB assay relative to control; type: functional
# [18] = Antiproliferative activity against human colon cancer cells assessed as cell growth inhibition at 10 uM by SRB assay relative to control; type: functional; conditions: Colon carcinoma cell
# Prostatic carcinoma cell = test: Antiproliferative activity against human prostatic carcinoma cells assessed as cell growth inhibition at 10 uM by SRB assay relative to control; type: functional
# Malme-3M [19] = test: Antiproliferative activity against human Malme-3M cells assessed as cell growth inhibition at 10 uM by SRB assay relative to control; type: functional
# UACC-62 = test: Antiproliferative activity against human UACC-62 cells assessed as cell growth inhibition at 10 uM by SRB assay relative to control; type: functional
# OVCAR-4 = test: Antiproliferative activity against human OVCAR-4 cells assessed as cell growth inhibition at 10 uM by SRB assay relative to control; type: functional
# OVCAR-8 = test: Antiproliferative activity against human OVCAR-8 cells assessed as cell growth inhibition at 10 uM by SRB assay relative to control; type: functional
# IGROV-1 = test: Antiproliferative activity against human IGROV-1 cells assessed as cell growth inhibition at 10 uM by SRB assay relative to control; type: functional
# BT-549 = test: Antiproliferative activity against triple negative human BT-549 cells assessed as inhibition of cell growth at 10 uM by SRB assay relative to control; type: functional
# M14 = test: Antiproliferative activity against human M14 cells assessed as cell growth inhibition at 10 uM by SRB assay; type: functional, cell-based
# LOX IMVI = test: Antiproliferative activity against human LOX IMVI cells assessed as cell growth inhibition at 10 uM by SRB assay; type: functional, cell-based
# HCT-116 = test: Antiproliferative activity against human HCT-116 cells assessed as cell growth inhibition at 10 uM by SRB assay relative to control; type: functional
# Malme-3M [20] = test: Antiproliferative activity against human Malme-3M cells assessed as cell growth inhibition at 10 uM by SRB assay; type: functional, cell-based
# ACHN = test: Antiproliferative activity against human ACHN cells assessed as inhibition of cell growth at 10 uM by SRB assay relative to control; type: functional; conditions: pooled result: one value given for 2 cell lines, strains, targets or settings
# RXF 393 = test: Antiproliferative activity against human RXF 393 cells assessed as inhibition of cell growth at 10 uM by SRB assay relative to control; type: functional
# CAKI-1 = test: Antiproliferative activity against human CAKI-1 cells assessed as inhibition of cell growth at 10 uM by SRB assay relative to control; type: functional
# Renal cancer cell line = test: Antiproliferative activity against human renal cancer cells assessed as cell growth inhibition at 10 uM by SRB assay relative to control; type: functional
Structure (SMILES),inhibition at 10 µM (RPMI-8226 [3]) [%],inhibition (SF-295 [4]),inhibition at 10 µM (EKVX) [%],inhibition (HOP-92),inhibition at 10 µM (NCI-H226) [%],inhibition at 10 µM (NCI-H23) [%],inhibition (NCI-H522),inhibition at 10 µM (SK-MEL-2) [%],inhibition (UO-31),inhibition (Hs-578T),inhibition (CCRF-CEM [11]),inhibition (HL-60 [12]),inhibition (K562 [13]),inhibition (MOLT-4 [14]),inhibition (RPMI-8226 [15]),inhibition (SR [16]),inhibition at 10 µM (T47D) [%],inhibition at 10 µM [17] [%],inhibition at 10 µM [18] [%],inhibition at 10 µM (Prostatic carcinoma cell) [%],further results
Cn1nnc2c(C(N)=O)ncn2c1=O [TEMOZOLOMIDE],–,–,–,–,–,–,–,–,–,–,–,–,–,–,–,–,–,–,–,–,inhibition at 10 µM (SF-295 [1]): 29.8%; inhibition at 10 µM (SNB-75 [2]): 40.8%
COc1cc2oc(-c3cccc(NC(=O)c4cccc(Br)c4)c3)cc(=O)c2c(O)c1OC,82.6,inactive,–,–,–,–,–,–,–,–,–,–,–,–,–,–,–,–,–,–,inhibition (SNB-19): inactive; inhibition (SF-539): inactive; inhibition (U-251): inactive; inhibition (SF-268): inactive; inhibition (SNB-75 [5]): inactive
COc1cc2oc(-c3ccc(NC(=O)c4ccc(C)cc4)cc3)cc(=O)c2c(OC)c1OC,≤ 42.6,Active,< 50,Active,< 50,< 50,Active,≤ 46,Active,Active,–,–,–,–,–,–,–,–,–,–,inhibition at 10 µM (CCRF-CEM [6]): ≤ 42.6%; inhibition at 10 µM (HL-60 [7]): ≤ 42.6%; inhibition at 10 µM (K562 [8]): ≤ 42.6%; inhibition at 10 µM (MOLT-4 [9]): ≤ 42.6%; inhibition at 10 µM (SR [10]): ≤ 42.6%
COc1cc2oc(-c3cccc(NC(=O)c4cccc(Br)c4)c3)cc(=O)c2c(OC)c1OC,–,Active,< 50,Active,< 50,< 50,Active,≤ 46,Active,Active,Active,Active,Active,Active,Active,Active,72.3,> 50,> 50,> 50,–
COc1cc2oc(-c3cccc(NC(=O)c4ccc([N+](=O)[O-])cc4)c3)cc(=O)c2c(OC)c1OC,–,Active,< 50,Active,< 50,< 50,Active,≤ 46,Active,Active,Active,Active,Active,Active,Active,Active,–,–,–,–,inhibition at 10 µM (Malme-3M [19]): 70.2%; inhibition at 10 µM (UACC-62): 52.1%; inhibition at 10 µM (OVCAR-4): 57.3%; inhibition at 10 µM (OVCAR-8): 57.3%; inhibition at 10 µM (IGROV-1): 57.3%; inhibition at 10 µM (BT-549): 77%
COc1cc2oc(-c3cccc(NC(=O)c4ccc(Cl)cc4)c3)cc(=O)c2c(OC)c1OC,–,Active,< 50,Active,< 50,< 50,Active,≤ 46,–,Active,Active,Active,Active,Active,Active,Active,62.2,> 50,> 50,> 50,inhibition (M14): Active; inhibition (LOX IMVI): Active; inhibition at 10 µM (HCT-116): 88%; inhibition (Malme-3M [20]): Active; inhibition at 10 µM (ACHN): 51.1%; inhibition at 10 µM (RXF 393): 51.1%; inhibition at 10 µM (CAKI-1): 51.1%; inhibition at 10 µM (Renal cancer cell line): > 50%
